In patent publication US20230117034A1, “PYRAZOLOTRIAZINES” (Bayer Aktiengesellschaft, priority 2019, published 2023) one finds IC50 data, which are given here for 11 molecules.

In experiment [1] the test system is CAL-120, human breast adenocarcinoma cells. The experiment can be described thus: Proliferation assay CAL-120 (crystal violet, 4 days). In kind it is cell-based. Conditions: Homo sapiens, CAL-120, 96 h, CAL-120 cells, median, read-out: Prolif-CAL-120, IC50-[mol/l] (median). Put shortly: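 CAL-120 or MDA-MB-231 cells grown 24 h, then exposed 4 days to compound (0.01–10 micromol/L, 0.1% DMSO). Crystal violet staining, absorbance at 595 nm, normalised to a zero-point plate (0%) and untreated cells (100%); IC50 by 4-parameter fit.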

For experiment [2], the target named is CDK12/CycK (Homo sapiens, UniProt Q9NYV4). The experiment can be described thus: CDK12/CycK high ATP kinase assay (TR-FRET, 2 mM ATP). It counts as biochemical. Conditions: 2 mM ATP (high ATP); median; read-out: CDK12/CyclinK, 2 mM ATP (high ATP), IC50-[mol/l] (median). Put shortly:
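His-tagged human CDK12/CycK (~0.75 nM) pre-incubated 15 min with compound, then 60 min at 22 °C with 2 mM ATP and 1 µM biotinylated peptide (HEPES pH 7.5, 20 mM MgCl2). EDTA stop; phospho-Ser62 antibody/Eu anti-rabbit and streptavidin-XL665 TR-FRET, 665/620 nm ratio normalised to give IC50.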

Each structure is given as a SMILES string. Some results are limits rather than exact numbers.

Sequence of CDK12/CycK (Q9NYV4 with tags, fused parts or gaps): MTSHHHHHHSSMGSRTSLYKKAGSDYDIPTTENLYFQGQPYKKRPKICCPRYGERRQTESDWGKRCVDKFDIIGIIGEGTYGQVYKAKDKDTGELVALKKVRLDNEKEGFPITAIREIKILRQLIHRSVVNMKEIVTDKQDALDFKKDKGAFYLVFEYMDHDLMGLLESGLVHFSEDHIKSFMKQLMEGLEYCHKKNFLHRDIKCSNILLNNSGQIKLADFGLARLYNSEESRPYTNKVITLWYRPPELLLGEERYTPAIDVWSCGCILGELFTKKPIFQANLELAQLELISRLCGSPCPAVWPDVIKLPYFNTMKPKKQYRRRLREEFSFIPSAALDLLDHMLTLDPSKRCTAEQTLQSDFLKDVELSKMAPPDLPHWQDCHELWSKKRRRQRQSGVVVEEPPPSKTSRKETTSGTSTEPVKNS
Sequence of CDK12/CycK (O75909 1-300 partner limits assumed): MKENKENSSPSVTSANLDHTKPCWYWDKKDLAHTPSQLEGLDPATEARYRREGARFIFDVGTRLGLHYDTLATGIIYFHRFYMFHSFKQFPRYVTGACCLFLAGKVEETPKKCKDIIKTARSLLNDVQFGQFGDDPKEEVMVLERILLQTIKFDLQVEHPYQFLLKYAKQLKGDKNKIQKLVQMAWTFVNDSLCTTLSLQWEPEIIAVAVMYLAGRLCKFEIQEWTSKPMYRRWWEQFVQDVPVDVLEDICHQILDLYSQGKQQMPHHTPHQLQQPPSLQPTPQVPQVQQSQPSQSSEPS

As to `Fc1ccc(-c2nnc(CNc3nc(N4CCOCC4)nc4c(Br)cnn34)[nH]2)c(F)c1` [Example 41, 8-bromo-N-{[5-(2,4-difluorophenyl)-4H-1,2,4-triazol-3-yl]methyl}-2-(morpholin-4-yl)pyrazolo[1,5-a][1,3,5]triazin-4-amine], the IC50 in experiment [1] is 11800 nM; in experiment [2], above 5710 nM.

With `Cc1cnn2c(NCc3nc4c(F)c(F)ccc4[nH]3)nc(N(C)CC(C)(C)O)nc12` [Example 395, 1-[(4-{[(4,5-difluoro-1H-benzimidazol-2-yl)methyl]amino}-8-methylpyrazolo[1,5-a][1,3,5]triazin-2-yl)(methyl)amino]-2-methylpropan-2-ol], the IC50 in experiment [1] stood at 11.1 nM; in experiment [2] it was 6400 nM.

For the molecule `COc1cccc2[nH]c(CNc3nc(N4CCOCC4)nc4c(-c5nccs5)cnn34)nc12` [Example 414, N-[(4-methoxy-1H-benzimidazol-2-yl)methyl]-2-(morpholin-4-yl)-8-(1,3-thiazol-2-yl)pyrazolo [1,5-a][1,3,5]triazin-4-amine], the figures for the IC50 in experiment [1] and in experiment [2] were 80.4 nM and above 5710 nM, respectively.

`CN1CCN(c2nc(NCc3nc4ccccc4[nH]3)n3ncc(CC(F)(F)F)c3n2)CC1` [Example 436, N-[(1H-benzimidazol-2-yl)methyl]-2-(4-methylpiperazin-1-yl)-8-(2,2,2-trifluoroethyl)pyrazolo [1,5-a][1,3,5]triazin-4-amine]: the IC50 in experiment [1] is 108 nM; in experiment [2], above 20000 nM.

On to `O=C(O)C(F)(F)F.c1ccc2[nH]c(CNc3nc(N4CCOCC4)nc4c(-c5ccnnc5)cnn34)nc2c1` [Example 438, trifluoroacetic acid N-[(1H-benzimidazol-2-yl)methyl]-2-(morpholin-4-yl)-8-(pyridazin-4-yl)pyrazolo[1,5-a][1,3,5]triazin-4-amine], for which the IC50 is 44.6 nM in experiment [1] and above 7860 nM in experiment [2].

Regarding `CCc1cnn2c(NCc3nc4c(F)c(F)ccc4[nH]3)nc(N3CCOCC3)nc12` [Example 432, N-[(4,5-difluoro-1H-benzimidazol-2-yl)methyl]-8-ethyl-2-(morpholin-4-yl)pyrazolo[1,5-a][1,3,5]triazin-4-amine], the IC50 in experiment [1] is 3.66 nM; in experiment [2], 2300 nM.

As for `FC(F)n1cc(-c2cnn3c(NCc4nc5cc(Cl)c(Cl)cc5[nH]4)nc(N4CCOCC4)nc23)cn1` [Example 423, N-[(5,6-dichloro-1H-benzimidazol-2-yl)methyl]-8-[1-(difluoromethyl)-1H-pyrazol-4-yl]-2-(morpholin-4-yl)pyrazolo[1,5-a][1,3,5]triazin-4-amine], the figures for the IC50 in experiment [1] and in experiment [2] were 12.3 nM and above 12900 nM, respectively.

As to `COC(C)(C)COc1nc(NCc2nc3ccccc3[nH]2)n2ncc(Br)c2n1` [Example 403, N-[(1H-benzimidazol-2-yl)methyl]-8-bromo-2-(2-methoxy-2-methylpropoxy)pyrazolo[1,5-a][1,3,5]triazin-4-amine], the values for the IC50 in experiment [1] and in experiment [2] were 151 nM and above 20000 nM, respectively.

Turning to `Brc1cnn2c(NCc3nnc(-c4cccnc4)[nH]3)nc(N3CCOCC3)nc12` [Example 53, 8-bromo-2-(morpholin-4-yl)-N-{[5-(pyridin-3-yl)-4H-1,2,4-triazol-3-yl]methyl}pyrazolo[1,5-a][1,3,5]triazin-4-amine], the results for the IC50 in experiment [1] and in experiment [2] were 106 nM and 2030 nM, respectively.

With `Fc1ccc2[nH]c(CNc3nc(N4CCOCC4)nc4c(-c5cncs5)cnn34)nc2c1F.O=C(O)C(F)(F)F` [Example 442, trifluoroacetic acid N-[(4,5-difluoro-1H-benzimidazol-2-yl)methyl]-2-(morpholin-4-yl)-8-(1,3-thiazol-5-yl)pyrazolo[1,5-a][1,3,5]triazin-4-amine], the IC50 in experiment [1] is 2.61 nM; in experiment [2] it was 583 nM.

On to `Clc1ccc(-c2nnc(CNc3nc(N4CCOCC4)nc4c(Br)cnn34)[nH]2)cc1` [Example 45, 8-bromo-N-{[5-(4-chlorophenyl)-4H-1,2,4-triazol-3-yl]methyl}-2-(morpholin-4-yl)pyrazolo[1,5-a][1,3,5]triazin-4-amine], for which the IC50 in experiment [1] was 89.1 nM; in experiment [2], 2200 nM.
